Patent US20210261690A9, “Method of Generating Anti-Linaclotide Antibodies and Uses Thereof” (Ironwood Pharmaceuticals, Inc., priority 2018, published 2021)
Values joined by “and” are separate entries in the source; they are usually repeats but may differ in a detail not shown here. Equal values may be shown once. Bridge positions count the residues as written; N and C are the ends. Ends that are not written are not given here. Peptide text beside a SMILES is read from it.

How the values were obtained:
[1] = after oral administration at therapeutic dose levels; cited from earlier work
[2] = test system: anti-linaclotide antibodies obtained using protocol 2; assay: Cross-reactivity competition assay; assay type: binding, rabbit; settings: 6.3 μg/mL peptide, 500 ng/mL antibody from protocol 2
From the text: The cross-reactivity assay to test for cross-reactivity to the endogenous hormones, uroguanylin and guanylin, is a competition assay similar to the confirmatory assay (Example 7).
To determine if the positive control antibody produced by protocol 2 could bind either of the endogenous hormones, uroguanylin or guanylin peptides were used in place of linaclotide in a competition assay similar to the confirmatory assay described in Example 7. During development, the IC80 concentration for linaclotide, 6.3 μg/mL, was chosen as a relevant test concentration for cross-reactivity because it is on the higher end of the linear range of the inhibition curve (FIG. 18). This concentration (6.3 μg/mL) is approximately 10,000 times the systemic circulating levels of uroguanylin and guanylin. A non-related peptide, C-type natriuretic peptide (CNP), was added as a negative control in this assay.

[3] = test system: antibody obtained from protocol 2; assay: Confirmatory assay (ELISA bridging assay with linaclotide competition); assay type: binding, rabbit; settings: 500 ng/mL antibody from protocol 2, 300 ng/mL SEQ ID NO: 8, 312 ng/mL SEQ ID NO: 9
From the text: The initial bridging assay was developed using a biotinylated form of linaclotide, SEQ ID NO: 8, for antibody capture, and the linaclotide-tracer peptide, SEQ ID NO: 9, for detection on a streptavidin plate. […] A sheep anti-fluorescein antibody conjugated to HRP was used for detection of SEQ ID NO: 9 to enhance the signal over direct detection of the fluorescein moiety by ultraviolet-visible spectroscopy (UV/Vis). In this initial assay, the capture peptide (biotin-linaclotide), detection peptide (fluorescein-linaclotide), and anti-linaclotide antibodies were first incubated overnight in solution to allow complexes to form. These complexes were captured on a streptavidin plate, which was then washed. Bound complexes were detected with an HRP-conjugated anti-fluorescein antibody followed by addition of the HRP substrate and colorimetric detection.
The confirmatory assay was developed as a variation of the ELISA-based bridging assay (Example 6) with competition using fluorescein for detection. The peptide antibody incubation mixture was spiked with native linaclotide, and the concentrations of positive control antibody, capture peptide, and detection peptide were kept constant.
A binding curve was generated using Prism® v.

[4] = test system: positive control antibody produced by protocol 1; assay: Bridging cross-reactivity assay with fluorescein-modified detection peptides; assay type: binding, rabbit; settings: 500 ng/mL antibody, 312 ng/mL SEQ ID NO: 8, 312 and 625 ng/mL fluorescein-modified peptides
From the text: A bridging cross-reactivity assay similar to the screening assay (Example 6) was set up to detect direct binding of the positive control antibody to both linaclotide and uroguanylin or guanylin. For use as detection peptides, uroguanylin and guanylin were synthesized with fluorescein coupled to their N terminus (SEQ ID NO: 10 and SEQ ID NO: 12, respectively; Table 4). This cross-reactivity assay used SEQ ID NO: 8 (Table 4) as the capture peptide, just as in the screening assay, and either SEQ ID NO: 10 (for uroguanylin) or SEQ ID NO: 12 (for guanylin) as the detection peptide. Sheep anti-fluorescein HRP-conjugated antibody was used for detection of positive control antibodies. The antibody must directly bind both the linaclotide-capture peptide and uroguanylin or guanylin to generate a signal in the assay (FIG. 21). A fluorescein-modified PGC1a peptide was purchased for use as a negative control for cross-reactivity.
This cross-reactivity assay was performed using 500 ng/mL of positive control antibody produced by protocol 1, 312 ng/mL of SEQ ID NO: 8, and 2 concentrations (312 and 625 ng/mL) of fluorescein-modified peptides for each set of reactions. […] Positive control antibody is excluded from blank incubations.

[5] = Phase 2b studies for CC, four-week treatment period; cited from earlier work
[6] = test system: positive control antibody; assay: Direct-binding ELISA of linaclotide-tracer peptide; parameters: species or system rabbit; settings: anti-fluorescein antibody conjugated to HRP for detection
From the text: Anti-fluorescein antibody conjugated to HRP was used to detect the linaclotide-tracer peptide, SEQ ID NO: 9. The signal increased with increasing antibody concentration.

[7] = test system: antibody produced by protocol 1; assay: Direct-binding ELISA for cross-reactivity with immobilized biotinylated peptides; parameters: species or system rabbit
Protocol: To further characterize the interactions between the positive control antibody and the cross-reacting peptides, a direct-binding ELISA experiment was conducted in which varying concentrations of biotinylated peptides (linaclotide, uroguanylin, and negative control parathyroid hormone [PTH]) were immobilized on the plate for antibody capture. The assay was performed using either sera from protocol 1 or anti-uroguanylin serum (Abcam ab52806) in ELISA buffer; no adequate control antibody to guanylin is available. HRP-anti-rabbit secondary antibody was used for the detection of anti-linaclotide antibodies, and HRP-anti-mouse secondary antibody was used for the detection of anti-uroguanylin antibodies from the antiserum. […] The signal for uroguanylin binding was approximately 15% of the signal obtained for linaclotide under the same conditions.

[8] = test system: rabbit anti-linaclotide antibody; assay: Electrochemiluminescence bridging assay, specificity (cross-reactivity); assay type: binding; settings: individual human serum
Protocol: The electrochemiluminescence assay was used as a validation of a method to detect anti-linaclotide antibodies in human serum using a MSD electrochemiluminescence protocol. Low positive control (LPC), high positive control (HPC), relative light units (RLU), coefficient of variation (CV) and confirmation cut points were determined using MSD procedures. The positive control antibodies used were the antibodies harvested from protocol 2.
The assay is an immunogenicity bridging-based assay developed on MesoScale Discovery Electrochemiluminescence (ECL) technology. It is performed by first mixing a biotinylated-linaclotide analog, a sulfotag-labeled linaclotide analog, and the clinical sample together in a multi-well plate. The presence of anti-linaclotide antibodies in the clinical sample forms an immune complex with a biotin-labeled linaclotide analog and a sulfotag-labeled linaclotide analog. The immune complex is subsequently captured on a streptavidin coated MesoScale Discovery multi-well plate followed by a wash step. The captured immune complex is then detected by electrochemiluminescence generated by the sulfotag-labeled linaclotide portion of the immune complex. The signal generated by the sample is then compared to a pre-determined screening cut point to determine if the sample is positive for the presence of anti-linaclotide antibodies. Samples that are determined to be positive are subjected to a second immunogenicity confirmation assay which is performed by mixing a biotinylated-linaclotide analog, a sulfotag-labeled linaclotide analog, the clinical sample, and unlabeled linaclotide together in a multi-well plate. The immune complex is subsequently captured on a streptavidin-coated MesoScale Discovery multi-well plate followed by a wash step. The captured immune complex is then detected by electrochemiluminescence generated by the sulfotag-labeled linaclotide portion of the immune complex. The signal generated by the sample is then compared to a pre-determined confirmation assay cut point to determine if the sample is positive for the presence of anti-linaclotide antibodies. Samples that are confirmed positive by this assay are subsequently tested at different dilutions to determine the titer of the anti-linaclotide antibody.
Specificity (cross-reactivity) of the assay was assessed by spiking ten drug-naive individual human serum samples containing rabbit anti-linaclotide antibody at the HPC (500 ng/mL) and the screening LPC (44 ng/mL) levels with 10 μg/mL Uroguanylin or Guanylin. At the same time, ten replicates of the antibody-spiked samples (without Uroguanylin or Guanylin) at each level were included to establish the % Inhibition. The following formula was used to calculate the % Inhibition for each individual:
% Inhibition=[(1−(Drug with Antibody/Antibody alone)]*100

In the case of `C[C@@H]1NC(=O)[C@@H]2CCCN2C(=O)[C@H](CC(N)=O)NC(=O)[C@@H]2CSSC[C@H](N)C(=O)N[C@H]3CSSC[C@H](NC1=O)C(=O)N[C@@H]([C@@H](C)O)C(=O)NCC(=O)N[C@H](C(=O)N[C@@H](Cc1ccc(O)cc1)C(=O)O)CSSC[C@H](NC(=O)[C@H](Cc1ccc(O)cc1)NC(=O)[C@H](CCC(=O)O)NC3=O)C(=O)N2` [Linaclotide, C1C2EYC3C1NPAC2TGC3Y] (H-CCEYCCNPACTGCY-OH; disulfide 1-6, 2-10, 5-13), the levels seen systemically [1] is listed as “no detectable levels”, the inhibition of binding [2] is listed as “approximately 60%” and the “50% inhibitory concentration (IC50)” value [3] is listed as 1.4 µg/mL. For the same molecule, the “80% inhibitory concentration (IC80)” value [3] was 6.3 µg/mL, the “signal in the direct-binding assay for cross-reactivity” value [4] was “Only linaclotide was able to generate a positive signal” and the “effect on constipation, abdominal discomfort and bloating” value [5] was “reduced constipation, abdominal discomfort, and bloating”.

With “Fluorescein-C1 C2 EYC3 C1 NPAC2 TGC3 Y [SEQ ID NO: 9]” the “binding to the positive control antibody” value [6] was “confirmed”.

With “NNDC1 ELC2 VAVAC1 TGC2 L (NNDCELCVAVACTGCL; disulfide 4-12, 7-15; not fully specified (N-terminus); printed as NNDC1 ELC2 VAVAC1 TGC2 L) [Uroguanylin, endogenous hormone]” the “recognition by antibodies produced by protocol 2 (inhibition versus negative control CNP)” value [2] was “not recognized by antibodies produced by protocol 2”, the “signal for binding relative to the signal obtained for linaclotide” value ([7]; 60 ng/mL antibody of protocol 1) was “approximately 15%” and the “binding of antibody produced by protocol 1” value ([7]; 60 ng/mL antibody of protocol 1, varying concentrations of biotinylated peptide, FIG. 20) was “binds to uroguanylin in a concentration-dependent manner”. The “Percent Inhibition” value ([8]; 10 μg/mL Uroguanylin, antibody at the HPC (500 ng/mL)) was 10.7% and 18.6% and 9.5% and −11.3% and 10.1% and −11.7% and −1.3% and −0.5% and 0.6% and 1.9%, the “Percent Inhibition” value ([8]; 10 μg/mL Uroguanylin, antibody at the Screening LPC (44.0 ng/mL)) was −6.6% and 18.4% and 15.7% and 4.8% and −3.8% and −1.5% and 3.2% and 5.1% and −0.5% and −4.1% and the “Antibody and 10 μg/mL Uroguanylin (signal)” value ([8]; antibody at the HPC (500 ng/mL)) was 147 and 151 and 145 and 164 and 162 and 185 and 180 (2×) and 169 and 157. For the same molecule, the “Antibody and 10 μg/mL Uroguanylin (signal)” value ([8]; antibody at the Screening LPC (44.0 ng/mL)) was 59 (2×) and 39 and 44 and 52 (4×) and 51 and 53.

In the case of “PGTC1 EIC2 AYAAC1 TGC2 (PGTCEICAYAACTGC; disulfide 4-12, 7-15; not fully specified (N-terminus); printed as PGTC1 EIC2 AYAAC1 TGC2) [Guanylin, endogenous hormone]”, the “recognition by antibodies produced by protocol 2 (inhibition versus negative control CNP)” value [2] is reported as “not recognized by antibodies produced by protocol 2”, the “Antibody and 10 μg/mL Uroguanylin (signal)” value ([8]; Table 7 (Guanylin), antibody at the HPC (500 ng/mL)) is reported as 225 and 199 and 179 and 177 and 174 and 181 and 155 and 135 and 130 and 239 and the “Antibody and 10 μg/mL Uroguanylin (signal)” value ([8]; Table 7 (Guanylin), antibody at the Screening LPC (44.0 ng/mL)) is reported as 71 and 57 (2×) and 55 (2×) and 54 and 53 (2×) and 63 and 51. The “Percent Inhibition” value ([8]; Table 7 (Guanylin, 10 μg/mL), antibody at the HPC (500 ng/mL)) was 0.0% and 3.2% and 7.6% and −3.4% and 2.2% and −7.8% and −3.9% and −1.9% and −7.1% and −4.5% and the “Percent Inhibition” value ([8]; Table 7 (Guanylin, 10 μg/mL), antibody at the Screening LPC (44.0 ng/mL)) was −7.1% and 8.2% and 3.4% and 12.5% and 11.0% and 7.4% and 6.4% and 3.6% and 0.1% and 7.0%.
